For the first assay, the target named is b-Raf (V600E) (Homo sapiens (Human), UniProt P15056, V600E). The following applies: read-out: b-Raf IC-50; AlphaScreen, 60 min pre-incubation, 3 hours reaction.
Chain of b-Raf (V600E) (P15056 whole entry V600E): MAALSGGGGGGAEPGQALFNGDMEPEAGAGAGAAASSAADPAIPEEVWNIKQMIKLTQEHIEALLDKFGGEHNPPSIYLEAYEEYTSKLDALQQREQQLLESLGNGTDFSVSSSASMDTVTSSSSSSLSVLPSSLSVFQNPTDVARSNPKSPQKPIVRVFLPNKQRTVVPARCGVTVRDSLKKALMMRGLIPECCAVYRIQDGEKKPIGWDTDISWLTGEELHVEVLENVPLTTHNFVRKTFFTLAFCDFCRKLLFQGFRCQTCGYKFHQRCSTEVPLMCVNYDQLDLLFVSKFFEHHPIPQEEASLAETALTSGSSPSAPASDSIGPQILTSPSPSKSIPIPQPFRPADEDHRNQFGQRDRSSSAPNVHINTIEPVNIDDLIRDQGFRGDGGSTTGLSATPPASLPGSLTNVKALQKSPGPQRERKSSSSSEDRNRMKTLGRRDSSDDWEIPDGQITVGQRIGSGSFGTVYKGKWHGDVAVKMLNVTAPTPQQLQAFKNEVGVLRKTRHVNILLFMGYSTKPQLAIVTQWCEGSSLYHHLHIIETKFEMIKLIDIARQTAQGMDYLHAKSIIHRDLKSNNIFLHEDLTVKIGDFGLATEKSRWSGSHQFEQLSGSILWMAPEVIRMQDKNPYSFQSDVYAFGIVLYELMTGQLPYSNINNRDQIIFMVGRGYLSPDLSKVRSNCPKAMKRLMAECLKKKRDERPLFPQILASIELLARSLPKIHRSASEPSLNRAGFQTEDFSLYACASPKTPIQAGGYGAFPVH
Turning to `Cc1ccc(NC(=O)c2ccnc(C(C)(C)C#N)c2)cc1-c1cc(N2CCOCC2)n(C)c(=O)c1` [Example 487, 2-(2-cyanopropan-2-yl)-N-(4-methyl-3-(1-methyl-6-morpholino-2-oxo-1,2-dihydropyridin-4-yl)phenyl)isonicotinamide], the IC50 worked out at 2.8 nM.
`Cc1ccc(NC(=O)c2ccnc(C(C)(C)C#N)c2)cc1-c1cc(N2CCOCC2)nc(NCCO)n1` [Example 734, 2-(2-cyanopropan-2-yl)-N-(3-(2-((2-hydroxyethyl)amino)-6-morpholinopyrimidin-4-yl)-4-methylphenyl)isonicotinamide]: the IC50 came out at 6.9 nM.
Still for that read-out and setting: as for `CCNc1nc(-c2cc(NC(=O)c3ccnc(C(C)(C)C#N)c3)ccc2C)cc(N2CCOCC2)n1` [Example 717, 2-(2-cyanopropan-2-yl)-N-(3-(2-(ethylamino)-6-morpholinopyrimidin-4-yl)-4-methylphenyl)isonicotinamide], the figure is 2.9 nM; as for `CCOc1ncc(-c2cc(NC(=O)c3cccc(C(F)(F)F)c3)ccc2C)nc1N1CCOCC1` [Example 538, N-(3-(5-ethoxy-6-morpholinopyrazin-2-yl)-4-methylphenyl)-3-(trifluoromethyl)benzamide], 1.2 nM; as for `CCNc1nc(-c2cc(NC(=O)c3ccnc(C(C)(C)O)c3)ccc2C)cc(N2CCOC[C@H]2C)n1` [Example 712, (R)—N-(3-(2-(ethylamino)-6-(3-methylmorpholino)pyrimidin-4-yl)-4-methylphenyl)-2-(2-hydroxypropan-2-yl)isonicotinamide], 12.1 nM.
Regarding `CCNc1nc(-c2cc(NC(=O)c3cccc(C(C)(C)C#N)c3)cnc2C)cc(N2CCOCC2)n1` [Example 726, 3-(2-cyanopropan-2-yl)-N-(5-(2-(ethylamino)-6-morpholinopyrimidin-4-yl)-6-methylpyridin-3-yl)benzamide], the IC50 stood at 9 nM.

The same assay, now with this note: read-out: b-Raf IC-50; AlphaScreen, 60 min pre-incubation, reaction 3 hours at room temperature.
With `Cc1ccc(NC(=O)c2cc(C(C)(C)F)ccn2)cc1-c1cc(N2CCOCC2)c(=O)n(C)c1` [Example 907, 4-(2-fluoropropan-2-yl)-N-(4-methyl-3-(1-methyl-5-morpholino-6-oxo-1,6-dihydropyridin-3-yl)phenyl)picolinamide], the IC50 is 4.43 nM.
Still for that read-out and setting: as for `Cc1ccc(NC(=O)c2cccc(S(C)(=O)=O)c2)cc1-c1cc(N2CCOCC2)nc(N2CC(O)C2)c1` [Example 1096, N-(3-(2-(3-hydroxyazetidin-1-yl)-6-morpholinopyridin-4-yl)-4-methylphenyl)-3-(methylsulfonyl)benzamide], the figure is 2 nM; as for `Cc1ccc(NC(=O)c2ccnc(C(C)(F)F)c2)cc1-c1cc(NCCO)nc(N2CCOCC2)c1` [Example 1037, 2-(1,1-difluoroethyl)-N-(3-(2-((2-hydroxyethyl)amino)-6-morpholinopyridin-4-yl)-4-methylphenyl)isonicotinamide], 1.07 nM; as for `Cc1ccc(NC(=O)c2cnncc2C(F)F)cc1-c1cc(N2CCOCC2)nc(N2CC(O)C2)c1` [Example 1075, 5-(difluoromethyl)-N-(3-(2-(3-hydroxyazetidin-1-yl)-6-morpholinopyridin-4-yl)-4-methylphenyl)pyridazine-4-carboxamide], 682 nM.
With `Cc1ncc(NC(=O)c2ccnc(C(F)(F)F)c2)cc1-c1cc(NCCO)nc(N2CCOC[C@H]2C)c1` [Example 1140, (R)—N-(2′-((2-hydroxyethyl)amino)-2-methyl-6′-(3-methylmorpholino)-[3,4′-bipyridin]-5-yl)-2-(trifluoromethyl)isonicotinamide], the IC50 came to 13.4 nM.
On the same count and under the same terms, as for `Cc1ccc(NC(=O)c2cnnc(C3(C#N)CC3)c2)cc1-c1cc(N2CCOCC2)n(C)c(=O)c1` [Example 899, 6-(1-cyanocyclopropyl)-N-(4-methyl-3-(1-methyl-6-morpholino-2-oxo-1,2-dihydropyridin-4-yl)phenyl)pyridazine-4-carboxamide], the figure is 1.87 nM.
Still for that read-out and setting: as for `Cc1ncc(NC(=O)c2ccnc(C(C)(F)F)c2)cc1-c1cc(N2CCOCC2)nc(N2CC(C)(O)C2)c1` [Example 1105, 2-(1,1-difluoroethyl)-N-(2′-(3-hydroxy-3-methylazetidin-1-yl)-2-methyl-6′-morpholino-[3,4′-bipyridin]-5-yl)isonicotinamide], the figure is 5.62 nM.
The same measure, in the same setting: as for `Cc1ncc(NC(=O)c2ccnc(C(F)F)c2)cc1-c1cc(N2CCOCC2)nc(N2CC(C)(O)C2)c1` [Example 1103, 2-(difluoromethyl)-N-(2′-(3-hydroxy-3-methylazetidin-1-yl)-2-methyl-6′-morpholino-[3,4′-bipyridin]-5-yl)isonicotinamide], the figure is 6.7 nM.
For `CCN1CCN(c2cc(C(=O)Nc3cnc(C)c(-c4cc(NCCO)nc(N5CCOCC5)c4)c3)cc(C(F)(F)F)c2)CC1` [Example 1045, 3-(4-ethylpiperazin-1-yl)-N-(2′-((2-hydroxyethyl)amino)-2-methyl-6′-morpholino-[3,4′-bipyridin]-5-yl)-5-(trifluoromethyl)benzamide], the IC50 is 32.9 nM.

The same assay, now with this note: read-out: b-Raf IC-50; Table 2; AlphaScreen, 3 hours reaction.
As to `Cc1ccc(NC(=O)c2cnnc(C3CC3)c2)cc1-c1cnc(OC2CCOCC2)c(N2CCOCC2)c1` [Example 276, 6-cyclopropyl-N-(4-methyl-3-(5-morpholino-6-((tetrahydro-2H-pyran-4-yl)oxy)pyridin-3-yl)phenyl)pyridazine-4-carboxamide], the IC50 worked out at 0.4 nM.
Consider `CCOc1ncc(-c2cc(NC(=O)c3cnnc(C(C)(C)C#N)c3)cnc2C)cc1N1CCOC[C@H]1C` [Example 303, (R)-6-(2-cyanopropan-2-yl)-N-(6′-ethoxy-2-methyl-5′-(3-methylmorpholino)-[3,3′-bipyridin]-5-yl)pyridazine-4-carboxamide], for which the IC50 was 100 nM.
As to `Cc1ncc(NC(=O)c2cnnc(C(C)(C)C#N)c2)cc1-c1cnc(Cl)c(N2CCOCC2)c1` [Example 293, N-(6′-chloro-2-methyl-5′-morpholino-[3,3′-bipyridin]-5-yl)-6-(2-cyanopropan-2-yl)pyridazine-4-carboxamide], the IC50 is 32.3 nM.
Same read-out and setting: as for `Cc1ccc(NC(=O)c2cccc(C(F)F)c2)cc1-c1cc(N2CCOCC2)c(=O)n(CCC#N)c1` [Example 336, N-(3-(1-(2-cyanoethyl)-5-morpholino-6-oxo-1,6-dihydropyridin-3-yl)-4-methylphenyl)-3-(difluoromethyl)benzamide], the figure is 5.5 nM; as for `Cc1ncc(NC(=O)c2cccc(C(C)(F)F)c2)cc1-c1cc(N2CCOCC2)c(=O)n(C)c1` [Example 393, 3-(1,1-difluoroethyl)-N-(1′,2-dimethyl-5′-morpholino-6′-oxo-1′,6′-dihydro-[3,3′-bipyridin]-5-yl)benzamide], 4.6 nM; as for `Cc1ncc(NC(=O)c2ccnc(C(C)C)c2)cc1-c1cnc(OC2CCOCC2)c(N2CCOCC2)c1` [Example 313, 2-isopropyl-N-(2-methyl-5′-morpholino-6′-((tetrahydro-2H-pyran-4-yl)oxy)-[3,3′-bipyridin]-5-yl)isonicotinamide], 7 nM.
On the same count and under the same terms, as for `CCn1cc(-c2cc(NC(=O)c3ccnc(C(C)(C)C#N)c3)ccc2C)cc(N2CCOCC2)c1=O` [Example 160, 2-(2-cyanopropan-2-yl)-N-(3-(1-ethyl-5-morpholino-6-oxo-1,6-dihydropyridin-3-yl)-4-methylphenyl)isonicotinamide], the figure is 10.6 nM.

These data come from patent US9694016B2 (Novartis AG, priority 2013, dated 2017).
